These results are taken from US12268692B2, “Combinatorial targeted therapy methods” (Postsurgical Therapeutics, Inc., priority 2020, dated 2025).

Series [1] in a line: In vitro release study of sorafenib and everolimus PLGA microspheres (sample-and-separate method, HPLC). As to conditions: during in vitro release study.
Experimental: The in vitro release study was carried out by sample-and-separate method. Briefly, 5 mg of microsphere sample (n=3) was taken into 100 mL flask and dispersed in 50 mL of release medium (0.5% Tween 20 and 0.1% sodium azide in phosphate-buffered saline (PBS at pH 7.4)). The flasks were placed in orbital agitating incubator at 37° C. and shacked at 100 rpm. At certain time points, 40 mL medium was taken and centrifuged at 3000 rpm for 2 min. From the supernatant, 30 mL was pipetted and replaced by same amount of the fresh media. In the collected supernatant, the content of the released SOF or EVE was analyzed by high performance liquid chromatography (HPLC).
For series [2] the following is noted: cited from earlier work.
The test system of another series is AGS cells. Kind of series: In vitro cytotoxicity study, XTT assay. It is filed as cell-based, human. As to the method:
AGS cells (2×10^4 cells/well) were seeded in a 12-well plates (Corning, Millipore Sigma) with 1 mL of RPMI-1640 medium containing 10% FBS (Fetal Bovine Serum) and incubated for 1 day at 37° C. in a humidified incubator containing 5% CO2. AGS cells were allowed to proliferate for tests of in vitro antitumor activity. In triplicate wells, Group 1 (PBS), Group 2 (ISG formulation without everolimus or trametinib), Group 3 (ISG formulation with 90 μg of everolimus), Group 4 (ISG formulation with 90 μg of trametinib) and Group 5 (ISG formulation with 90 μg of everolimus and 90 μg of tramethinib), Group 6 (cell culture media without AGS cells) and Group 7 (10% ethanol in cell culture media) were added directly into chambers of the 12 well plate to examine the in vitro antitumor activity of these solutions against AGS cancer cells. […]
(§1) Briefly, 100 μL of PBS solution containing the XTT substrate (50 mg/mL) was added to each 12-well plate and the plates were incubated at 37° C. for 4 h. […] The solution of each well was transferred to a 96-well plate (triplicate for wells 1 and 2 and duplicate for well 3) and read using a microplate reader (Bio-teck XLS800; Bio-Tek Instruments City of Industry, CA). The optical density of the formazan product of each well was measured at a wavelength of 450 nm and a reference wavelength of 630 nm. […]
In general terms: Tetrazolium assays rely on reduction of a dye to a coloured formazan, in cell work by metabolically active cells.

The test system of series [3] is SW403 colorectal cell line. The series is described as follows: In vitro cytotoxicity study, XTT assay. It is filed as cell-based, human. The following applies: SW403 cells. As to the method:
(§2) AGS cells (2×10^4 cells/well) were seeded in a 12-well plates (Corning, Millipore Sigma) with 1 mL of RPMI-1640 medium containing 10% FBS (Fetal Bovine Serum) and incubated for 1 day at 37° C. in a humidified incubator containing 5% CO2. AGS cells were allowed to proliferate for tests of in vitro antitumor activity. In triplicate wells, Group 1 (PBS), Group 2 (ISG formulation without everolimus or trametinib), Group 3 (ISG formulation with 90 μg of everolimus), Group 4 (ISG formulation with 90 μg of trametinib) and Group 5 (ISG formulation with 90 μg of everolimus and 90 μg of tramethinib), Group 6 (cell culture media without AGS cells) and Group 7 (10% ethanol in cell culture media) were added directly into chambers of the 12 well plate to examine the in vitro antitumor activity of these solutions against AGS cancer cells.
(§3) Each 12 well plate chamber was seeded with AGS cells (2×10^4 cells/well). The 12 well plates were maintained at 37° C. in a humidified incubator containing 5% CO2 for 48 hours prior to dosing. To create a drug depot at dosing time, 2 μL of each of the ISG everolimus formulation (90 μg everolimus/well), the ISG trametinib formulation (90 μg trametinib/well) and ISG everolimus-trametinib (90 μg everolimus+90 μg trametinib) formulations were added directly into the media of each corresponding plate well and maintained at 37° C. in a humidified incubator for the duration of the experiment. […]
as §1

For series [4], the system named is MIA PaCa-2 pancreatic cell line. Kind of series: In vitro cytotoxicity study, XTT assay. In kind it is cell-based, human. The following applies: MIA PaCa-2 cells. As to the method: as §2, §3, §1
For another series, the system named is NCI H441 lung cell line. Kind of series: In vitro cytotoxicity study, XTT assay. The following applies: NCI H441 cells. In kind it is cell-based, human. As to the method: as §2, §3, §1

Turning to `CO[C@H]1C[C@@H]2CC[C@@H](C)[C@@](O)(O2)C(=O)C(=O)N2CCCC[C@H]2C(=O)O[C@H]([C@H](C)C[C@@H]2CC[C@@H](OCCO)[C@H](OC)C2)CC(=O)[C@H](C)/C=C(\C)[C@@H](O)[C@@H](OC)C(=O)[C@H](C)C[C@H](C)/C=C/C=C/C=C/1C` [EVE, everolimus], the “stability of EVE inside the microsphere” value in series [1] was “stable inside the microsphere”. Further, the “stability of EVE as free form in aqueous solution” value in series [2] is recorded as “degrade quickly in aqueous solution as free form”.

`CCO` [ethanol]: the “in vitro cytotoxicity (XTT), ethanol treatment alone” value in the series with AGS cells (10% ethanol in cell culture media, 72 h time point) is “complete ablation and cytotoxicity of the cancer cells”. In addition, the “in vitro cytotoxicity (XTT)” value in the series with AGS cells (24 and 72 h of exposure) is “ablation with a complete cytotoxic effect on the cancer cells”; in series [3], “ablation with a complete cytotoxic effect on the cancer cells”; in series [4] it was “ablation with a complete cytotoxic effect on the cancer cells”; in the series with NCI H441 lung cell line it was “ablation with a complete cytotoxic effect on the cancer cells”.
